In ChEMBL document CHEMBL1125978 (Bioorg Med Chem Lett, 1991):
pIC50: −log10 of the molar value.

Assays:
[1] = molecular target: T1, Muscarinic acetylcholine receptor (Rattus norvegicus) (UniProt P08482+P08483+P08485+P08911+P10980); details: 0.1 uM
[2] = molecular target: T1, Muscarinic acetylcholine receptor (Rattus norvegicus); details: 1.0 uM
[3] = molecular target: Muscarinic acetylcholine receptor
Description: Compound was evaluated for its ability to displace muscarinic antagonist [3H]cis-methyldioxolane in rat cortical tissue (RQNB binding assay), at 1.0 uM concentration

[4] = molecular target: T2, Muscarinic acetylcholine receptor M1 (Rattus norvegicus, UniProt P08482)
T2 sequence (P08482 whole entry): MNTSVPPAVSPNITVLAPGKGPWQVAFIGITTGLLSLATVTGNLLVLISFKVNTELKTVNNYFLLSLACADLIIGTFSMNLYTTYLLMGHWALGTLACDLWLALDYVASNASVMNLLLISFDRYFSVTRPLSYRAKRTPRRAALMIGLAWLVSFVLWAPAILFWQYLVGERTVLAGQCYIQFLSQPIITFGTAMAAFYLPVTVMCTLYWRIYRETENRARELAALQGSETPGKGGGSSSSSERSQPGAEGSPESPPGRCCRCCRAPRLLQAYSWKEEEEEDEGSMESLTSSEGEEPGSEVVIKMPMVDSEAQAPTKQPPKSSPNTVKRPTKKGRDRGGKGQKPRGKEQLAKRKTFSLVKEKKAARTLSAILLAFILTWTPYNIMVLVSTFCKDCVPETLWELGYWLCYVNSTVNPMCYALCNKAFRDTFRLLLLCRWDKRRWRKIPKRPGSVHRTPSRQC
Description: Compound was evaluated for the displacement of the muscarinic QNB in a genetically transformed rat cell line (m1c2) transfected with cloned m1 receptors (m1-QNBm1c2)

[5] = molecular target: Muscarinic acetylcholine receptor; remark: listed apart in the source
[6] = molecular target: T3, Muscarinic acetylcholine receptor M2 (Rattus norvegicus, UniProt P10980); assay: biochemical
T3 sequence (P10980 whole entry): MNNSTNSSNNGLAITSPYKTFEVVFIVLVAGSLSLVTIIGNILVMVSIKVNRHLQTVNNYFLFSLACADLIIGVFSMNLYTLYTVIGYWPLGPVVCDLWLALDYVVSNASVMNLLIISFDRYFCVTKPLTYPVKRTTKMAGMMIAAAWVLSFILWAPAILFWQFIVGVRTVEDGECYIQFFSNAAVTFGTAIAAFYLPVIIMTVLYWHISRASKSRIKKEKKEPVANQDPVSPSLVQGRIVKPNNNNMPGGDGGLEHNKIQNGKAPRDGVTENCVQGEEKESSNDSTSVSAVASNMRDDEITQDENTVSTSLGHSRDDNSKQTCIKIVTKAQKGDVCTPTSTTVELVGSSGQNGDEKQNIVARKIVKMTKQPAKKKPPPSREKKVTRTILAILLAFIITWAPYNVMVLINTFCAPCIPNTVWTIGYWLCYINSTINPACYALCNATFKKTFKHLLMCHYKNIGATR
Description: Compound was evaluated for the displacement of the muscarinic QNB in rat heart homogenate containing the pharmacologic M2 receptor (M2-QNB heart)

[7] = system: SK-N-SH; assay: Phosphoinositide (PI) turnover was assessed by the ability to stimulate [3H]- inositol phosphate accumulation in human SK-N-SH neuroblastoma cells relative to carbachol; format: functional
[8] = system: SK-N-SH

inhibition [1] [%] | inhibition [2] [%] | SMILES | further results
2 | 10 | CCCN1C(=O)OC[C@@H]1Cc1cn(C)cn1 | –
6 | 0 | CCN1C(=O)OC[C@H]1Cc1cncn1C | –
– | – | CCN1C(=O)OC[C@@H]1Cc1cncn1C | IC50 [3]: 8.9 µM; pIC50 [4]: 4.90; IC50 [5]: 0.043 µM; pIC50 [6]: 4.51; PI turnover [7]: 16%
– | – | CCCN1C(=O)OC[C@@H]1Cc1cncn1C | IC50 [3]: 3300 µM; IC50 [5]: 73 µM
– | – | O=C1CCCN1CC#CCN1CCCC1 [OXOTREMORINE] | PI turnover [8]: 33%; pIC50 [4]: 6.44; pIC50 [6]: 6.07
– | – | C[N+](C)(C)CCOC(N)=O.[Cl-] [CARBACHOL] | PI turnover [8]: 100%
11 | 2 | CN1C(=O)OC[C@@H]1Cc1cncn1C | –
4 | 4 | CCN1C(=O)OC[C@@H]1Cc1c[nH]cn1 | –
2 | 4 | CCCN1C(=O)OC[C@@H]1Cc1c[nH]cn1 | –
0 | 1 | CCN1C(=O)OC[C@H]1Cc1cn(C)cn1 | –
0 | 0 | CN1C(=O)OC[C@@H]1Cc1c[nH]cn1 | –
0 | 2 | CCN1C(=O)OC[C@H]1Cc1c[nH]cn1 | –
